We go through one molecule from patent US20080008754A1, “Pharmaceutical Compositions Comprising (+)-(2S,3S)-2-(3-Chlorophenyl)-3,5,5-Trimethyl-2-Morpholinol” (SMITHKLINE BEECHAM CORPORATION, priority 2004, published 2008).

This data set in a line: Solubility in an acidic environment. Format: physicochemical. As to conditions: aqueous buffer.

Broadly, the solubility is how much of the substance goes into solution per volume. A high value points to much dissolved substance. `C[C@@H]1NC(C)(C)CO[C@@]1(O)c1cccc(Cl)c1` [compound of formula (I), (+)-(2S,3S)-2-(3-chlorophenyl)-3,5,5-trimethyl-2-morpholinol] registered a solubility of approximately 150 mg/mL.
